Results reported in ChEMBL document CHEMBL1124939, “Synthesis of thromboxane receptor antagonists with bicyclo[3.1.0]hexane ring systems” (J Med Chem, 1990).

What was measured:
Type in all cases: functional
Rattus norvegicus [1] = organism: Rattus norvegicus; test: The partial agonistic activity (shape change of rat WP) induced by test compound at 1 uM was calibrated for that of S-145
Oryctolagus cuniculus = organism: Oryctolagus cuniculus; test: Tested for the inhibitory activity against aggregation of rabbit platelet-rich plasma (PRP) induced by 500 uM of arachidonic acid.
Rattus norvegicus [2] = organism: Rattus norvegicus; test: Tested for the inhibitory activity against aggregation of rat washed platelets (WP) induced by 4 micro g/mL of collagen.

Row | SMILES | Relative agonist activity (Rattus norvegicus [1]) | IC50 (Oryctolagus cuniculus) [nM] | IC50 (Rattus norvegicus [2]) [nM]
1 | O=C(O)CCC/C=C\C[C@H]1[C@@H]2CCC(C2)[C@@H]1NS(=O)(=O)c1ccccc1 | 100 | 1000 | 1
2 | O=C([O-])CCC/C=C\C[C@H]1C2CC2C[C@H]1NS(=O)(=O)c1ccccc1.[Na+] (mixture of isomers) | 33 | 37800 | 25
3 | O=C([O-])CCC/C=C\C[C@H]1C2O[C@H]2C[C@H]1NS(=O)(=O)c1ccccc1.[Na+] (mixture of isomers) | 26 | 49100 | 23
4 | O=C([O-])CCC/C=C\C[C@H]1C2O[C@H]2C[C@@H]1NS(=O)(=O)c1ccccc1.[Na+] (mixture of isomers) | 82 | 2600 | 4
5 | O=C([O-])CCC/C=C\C[C@H]1C2OC2C[C@@H]1NS(=O)(=O)c1ccccc1.[Na+] (mixture of isomers) | 0 | 391000 | 100
6 | O=C([O-])CCC/C=C\C[C@H]1[C@@H]2C[C@@H]2C[C@@H]1NS(=O)(=O)c1ccccc1.[Na+] (racemic) | 22 | 11300 | 12.5
7 | CC1(C)[C@@H]2[C@H](C/C=C\CCCC(=O)[O-])[C@@H](NS(=O)(=O)c3ccccc3)C[C@@H]21.[Na+] (racemic) | 22 | 44000 | 4.3
8 | O=C([O-])CCC/C=C\C[C@H]1[C@@H]2S[C@@H]2C[C@@H]1NS(=O)(=O)c1ccccc1.[Na+] (racemic) | 0 | 178000 | 10
9 | O=C([O-])CCC/C=C\C[C@H]1[C@H]2C[C@H]2C[C@@H]1NS(=O)(=O)c1ccccc1.[Na+] (racemic) | 67 | 5300 | 8.3
10 | CC1(C)[C@H]2[C@H](C/C=C\CCCC(=O)[O-])[C@@H](NS(=O)(=O)c3ccccc3)C[C@H]21.[Na+] (racemic) | 11 | 432000 | 4.1
11 | O=C([O-])CCC/C=C\C[C@H]1[C@H]2S[C@H]2C[C@@H]1NS(=O)(=O)c1ccccc1.[Na+] (racemic) | 74 | 11300 | 2.9
